Assay results reported in patent US5550128A, “Enantiomers of gamma methylene 10-deaza aminopterin and process for preparing the same” (priority 1994, dated 1996).

Tests used:
[1] = biological target: T1, Recombinant Human Dihydrofolate Reductase (Homo sapiens, UniProt P00374); test: Inhibition of recombinant human dihydrofolate reductase, spectrophotometric enzyme assay; format: biochemical
T1 sequence (P00374 1-187): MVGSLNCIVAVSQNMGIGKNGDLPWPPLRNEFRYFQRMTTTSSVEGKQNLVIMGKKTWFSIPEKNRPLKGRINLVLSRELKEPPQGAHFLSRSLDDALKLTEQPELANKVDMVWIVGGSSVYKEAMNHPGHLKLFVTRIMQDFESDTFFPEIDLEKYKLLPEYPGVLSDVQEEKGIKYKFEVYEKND
Protocol: Enzyme assay was performed spectrophotometrically in a solution containin
50 μM dihydrofolate, 80 μM NADPH, 0.05 M Tris HCl. 0.01 M
2mercaptoethanol and 0.001 M EDTA at pH 7.4 at 30°. The reaction
Pure human recombinant enzyme was used.

[2] = test system: transport of radiolabeled folinic acid to H35 hepatoma cells; test: Inhibition of transport of radiolabeled folinic acid to H35 hepatoma cells; format: cell-based
Protocol: (§1) Independent, further evidences to the identity of L-MDAM as the biologically active enantiomer of the racemic mixture of D,L-MDAM (previously described as MDAM; Ref, U.S. Pat. No. 4,996,207) was obtained by the following data. […] The cytotoxicity of L-MDAM versus D,L-MDAM was also compared. […] The l50 value for growth inhibition (Gl50) was 39 nM for D,L-MDAM. […] Taken together, these unexpected and novel results establish that the biologically active compound present in the racemic mixture of MDAM is the L-enantiomer described in claim number 1.

[3] = test system: H35 hepatoma cells; test: Growth inhibition of H35 hepatoma cells in culture; format: cell-based
Protocol: as §1

[4] = test system: 786-O (renal cancer); test: Human Disease Oriented in vitro Antitumor Screen; format: cell-based; settings: 786-0, 786-O (Table 5), read-out: Gl50 (the source's name)
Protocol: (§2) Further, by analogy to methotrexate (rheumatrex) L-MDAM should be useful in the treatment of autoimmune diseases such as rheumatoid arthritis and inflammatory diseases such as asthma.
(§3) A 48 h continuous drug exposure protocol was used combined with an SR13
(§4) protein assay to estimate cell growth or viability.

[5] = test system: ACHN (renal cancer); test: Human Disease Oriented in vitro Antitumor Screen; format: cell-based; settings: ACHN (Table 5), read-out: Gl50 (the source's name)
Protocol: as §2, §3, §4

[6] = test system: CCRF-CEM (leukemia); test: Human Disease Oriented in vitro Antitumor Screen; format: cell-based; settings: CCRF-CEM (Table 5), read-out: Gl50 (the source's name)
Protocol: as §2, §3, §4

[7] = test system: HCT-116 (colon cancer); test: Human Disease Oriented in vitro Antitumor Screen; format: cell-based; settings: HCT-116 (Table 5), read-out: Gl50 (the source's name)
Protocol: as §2, §3, §4

[8] = test system: HL-60 (TB) (leukemia); test: Human Disease Oriented in vitro Antitumor Screen; format: cell-based; settings: HL-60 TB (Table 5), read-out: Gl50 (the source's name)
Protocol: as §2, §3, §4

[9] = test system: HT-29 (colon cancer); test: Human Disease Oriented in vitro Antitumor Screen; format: cell-based; settings: HT-29 (Table 5), read-out: Gl50 (the source's name)
Protocol: as §2, §3, §4

[10] = test system: LOX IM VI (melanoma); test: Human Disease Oriented in vitro Antitumor Screen; format: cell-based; settings: LOX IMVI, LOX MI VI (Table 5), read-out: Gl50 (the source's name)
Protocol: as §2, §3, §4

[11] = test system: MOLT-4 (leukemia); test: Human Disease Oriented in vitro Antitumor Screen; format: cell-based; settings: MOLT-4 (Table 5), read-out: Gl50 (the source's name)
Protocol: as §2, §3, §4

[12] = test system: OVCAR-8 (ovarian cancer); test: Human Disease Oriented in vitro Antitumor Screen; format: cell-based; settings: OVCAR-8 (Table 5), read-out: Gl50 (the source's name)
Protocol: as §2, §3, §4

[13] = test system: SF-268; test: Human Disease Oriented in vitro Antitumor Screen; format: cell-based; settings: SF-268 (Table 5), read-out: Gl50 (the source's name)
Protocol: as §2, §3, §4

[14] = test system: SF-295; test: Human Disease Oriented in vitro Antitumor Screen; format: cell-based; settings: SF-295 (Table 5), read-out: Gl50 (the source's name)
Protocol: as §2, §3, §4

[15] = test system: SF-539; test: Human Disease Oriented in vitro Antitumor Screen; format: cell-based; settings: SF-539 (Table 5), read-out: Gl50 (the source's name)
Protocol: as §2, §3, §4

[16] = test system: SR (leukemia); test: Human Disease Oriented in vitro Antitumor Screen; format: cell-based; settings: SR (Table 5), read-out: Gl50 (the source's name)
Protocol: as §2, §3, §4

[17] = test system: SW-620 (colon cancer); test: Human Disease Oriented in vitro Antitumor Screen; format: cell-based; settings: SW-620 (Table 5), read-out: Gl50 (the source's name)
Protocol: as §2, §3, §4

[18] = test system: DU 145 (prostate cancer); test: Human Disease Oriented in vitro Antitumor Screen; format: cell-based; settings: DU 145 (Table 5), read-out: Gl50 (the source's name)
Text: (§5) It is also active against the adriamycin resistant MCF-7 human breast cancer cells (Gl50 -=74×10^-9).
(§6) Human Disease Oriented in vitro Antitumor Screen

[19] = test system: HCT-15 (colon cancer); test: Human Disease Oriented in vitro Antitumor Screen; format: cell-based; settings: HCT-15 (Table 5), read-out: Gl50 (the source's name)
Text: as §5, §6

[20] = test system: HOP-62 (non-small cell lung cancer); test: Human Disease Oriented in vitro Antitumor Screen; format: cell-based; settings: HOP-62 (Table 5), read-out: Gl50 (the source's name)
Text: as §5, §6

[21] = test system: IGROVI (ovarian cancer); test: Human Disease Oriented in vitro Antitumor Screen; format: cell-based; settings: IGROVI (Table 5), read-out: Gl50 (the source's name)
Text: as §5, §6

[22] = test system: M14 (melanoma); test: Human Disease Oriented in vitro Antitumor Screen; format: cell-based; settings: M14 (Table 5), read-out: Gl50 (the source's name)
Text: as §5, §6

[23] = test system: MCF-7 (breast cancer); test: Human Disease Oriented in vitro Antitumor Screen; format: cell-based; settings: MCF7, MCF-7 (Table 5), read-out: Gl50 (the source's name)
Text: as §5, §6

[24] = test system: MDA-MB-231/ATCC (breast cancer); test: Human Disease Oriented in vitro Antitumor Screen; format: cell-based; settings: MDA-MB-231/ATCC (Table 5), read-out: Gl50 (the source's name)
Text: as §5, §6

[25] = test system: MDA-N (breast cancer); test: Human Disease Oriented in vitro Antitumor Screen; format: cell-based; settings: MDA-N (Table 5), read-out: Gl50 (the source's name)
Text: as §5, §6

[26] = test system: NCI-H460 (non-small cell lung cancer); test: Human Disease Oriented in vitro Antitumor Screen; format: cell-based; settings: NCI-H460 (Table 5), read-out: Gl50 (the source's name)
Text: as §5, §6

[27] = test system: OVCAR-5 (ovarian cancer); test: Human Disease Oriented in vitro Antitumor Screen; format: cell-based; settings: OVCAR-5 (Table 5), read-out: Gl50 (the source's name)
Text: as §5, §6

[28] = test system: RPMI-8226 (leukemia); test: Human Disease Oriented in vitro Antitumor Screen; format: cell-based; settings: RPMI-8226 (Table 5), read-out: Gl50 (the source's name)
Text: as §5, §6

[29] = test system: SN-12C (renal cancer); test: Human Disease Oriented in vitro Antitumor Screen; format: cell-based; settings: SN12C, SN-12C (Table 5), read-out: Gl50 (the source's name)
Text: as §5, §6

[30] = test system: TK-10 (renal cancer); test: Human Disease Oriented in vitro Antitumor Screen; format: cell-based; settings: TK-10 (Table 5), read-out: Gl50 (the source's name)
Text: as §5, §6

[31] = test system: U-251 (CNS cancer); test: Human Disease Oriented in vitro Antitumor Screen; format: cell-based; settings: U-251 (Table 5), read-out: Gl50 (the source's name)
Text: as §5, §6

[32] = test system: ZIACC-62 (melanoma); test: Human Disease Oriented in vitro Antitumor Screen; format: cell-based; settings: ZIACC-62 (Table 5), read-out: Gl50 (the source's name)
Text: as §5, §6

[33] = test system: adriamycin resistant MCF-7 human breast cancer cells (MCF-7/ADR-RBS); test: Human Disease Oriented in vitro Antitumor Screen, adriamycin resistant cells; format: cell-based; settings: MCF7, read-out: Gl50 (the source's name)
Text: as §5, §6

[34] = test system: human tumor cell lines in culture; test: Human Tumor Disease Oriented in vitro screen, panel as a whole; format: cell-based; settings: relative to methotrexate, or enantiomer comparison
Protocol: as §2, §3, §4

C=C(C[C@H](NC(=O)c1ccc(CCc2cnc3nc(N)nc(N)c3n2)cc1)C(=O)O)C(=O)O [L-MDAM, 4-amino-4-deoxy-10-deazapteroyl-γ-methylene-L-glutamic acid]
IC50 ([1]; 50 μM dihydrofolate, 80 μM NADPH, pH 7.4, 30°): 22 nM
IC50 Compound/IC50 MTX ([1]; ratio to MTX): 1.29
DHFR inhibitory activity (comparison in words) ([1]; relative to MTX or D,L-MDAM): exactly twice as active as D,L-MDAM
IC50 ([2]; H35 hepatoma cells, read-out: l50 value, inhibition of transport of radiolabeled folinic acid): 2300 nM
reduction in l50 value (transport) versus D,L-MDAM ([2]; L-MDAM versus D,L-MDAM): approximately one-half
cytotoxicity versus D,L-MDAM ([3]; H35 hepatoma cells): Dramatic and unexpected potentiation of activity
IC50 ([3]; H35 hepatoma cells in culture, identical conditions, read-out: l50 value for growth inhibition (Gl50)): 8 nM
IC50 [4]: < 10 nM
IC50 [5]: < 10 nM
IC50 [6]: < 10 nM
IC50 [7]: < 10 nM
IC50 [8]: < 10 nM
IC50 [9]: < 10 nM
IC50 [10]: < 10 nM
IC50 [11]: < 10 nM
IC50 [12]: < 10 nM
IC50 [13]: < 10 nM
IC50 [14]: < 10 nM
IC50 [15]: < 10 nM
IC50 [16]: < 10 nM
IC50 [17]: < 10 nM
IC50 [18]: < 10 nM
IC50 [19]: < 10 nM
IC50 [20]: < 10 nM
IC50 [21]: < 10 nM
IC50 [22]: < 10 nM
IC50 [23]: < 10 nM
IC50 [24]: < 10 nM
IC50 [25]: < 10 nM
IC50 [26]: < 10 nM
IC50 [27]: < 10 nM
IC50 [28]: < 10 nM
IC50 [29]: < 10 nM
IC50 [30]: < 10 nM
IC50 [31]: < 10 nM
IC50 [32]: < 10 nM
IC50 [33]: 74 nM
activity/potency in inhibiting growth of human tumor cell lines (in words) [34]: biologically active enantiomer of D,L-MDAM
